Data published in ChEMBL document CHEMBL1146832, “N-Benzylindole-2-carboxylic acids: potent functional antagonists of the CCR2b chemokine receptor” (Bioorg Med Chem Lett, 2004).

Molecular target: C-C chemokine receptor type 2 (Homo sapiens, UniProt P41597)
Assay: Inhibition of human C-C chemokine receptor type 2

Chain of C-C chemokine receptor type 2 (P41597 whole entry): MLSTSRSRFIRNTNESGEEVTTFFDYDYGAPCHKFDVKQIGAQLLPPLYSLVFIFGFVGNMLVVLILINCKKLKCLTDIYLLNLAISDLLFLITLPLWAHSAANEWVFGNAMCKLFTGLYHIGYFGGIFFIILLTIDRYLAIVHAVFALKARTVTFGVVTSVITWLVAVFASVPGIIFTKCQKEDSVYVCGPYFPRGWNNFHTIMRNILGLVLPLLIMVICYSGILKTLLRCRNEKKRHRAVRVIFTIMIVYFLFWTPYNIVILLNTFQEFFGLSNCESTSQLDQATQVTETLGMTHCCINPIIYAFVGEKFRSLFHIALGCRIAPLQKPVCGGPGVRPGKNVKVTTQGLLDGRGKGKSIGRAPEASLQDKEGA

SMILES | IC50 [nM]
O=C(O)c1cc2ccccc2n1S(=O)(=O)c1ccc(Cl)c(Cl)c1 | 1020
COc1ccc2cc(C(=O)O)n(Cc3ccc(Cl)c(Cl)c3)c2c1 | 2300
COc1cccc2c1cc(C(=O)O)n2Cc1ccc(Cl)c(Cl)c1 | 280
O=C(O)c1cc2ccccc2n1Cc1cccc(Cl)c1 | 1130
O=C(O)c1cc2c(F)cccc2n1Cc1ccc(Cl)c(Cl)c1 | 99
Nc1ccc2cc(C(=O)O)n(Cc3ccc(Cl)c(Cl)c3)c2c1 | 12600
O=C(NS(=O)(=O)c1ccccc1)c1cc2ccccc2n1Cc1ccc(Cl)c(Cl)c1 | 4780
Cc1ccc(Cn2c(C(=O)O)cc3cc(Cl)ccc32)cc1Cl | 120
O=C(O)c1cc2cccc(Cl)c2n1Cc1ccc(Cl)c(Cl)c1 | 340
Nc1ccc2c(c1)cc(C(=O)O)n2Cc1ccc(Cl)c(Cl)c1 | 500
O=C(O)c1cc2ccc(Cl)cc2n1Cc1ccc(Cl)c(Cl)c1 | 340
O=C(O)c1cc2c(C(F)(F)F)cccc2n1Cc1ccc(Cl)c(Cl)c1 | 1190
O=C(O)c1cc2cc([N+](=O)[O-])ccc2n1Cc1ccc(Cl)c(Cl)c1 | 390
O=C(O)c1cc2c([N+](=O)[O-])cccc2n1Cc1ccc(Cl)c(Cl)c1 | 1310
O=C(NS(=O)(=O)C(F)(F)F)c1cc2cc(F)ccc2n1Cc1ccc(Cl)c(Cl)c1 | 370
O=C(O)c1c(Cl)c2ccccc2n1Cc1ccc(Cl)c(Cl)c1 | 260
Clc1ccc(Cn2c(-c3nn[nH]n3)cc3ccccc32)cc1Cl | 1030
NC(=O)c1cc2ccccc2n1Cc1ccc(Cl)c(Cl)c1 | 12700
CS(=O)(=O)c1ccc2c(c1)cc(C(=O)O)n2Cc1ccc(Cl)c(Cl)c1 | 2200
O=C(O)c1cc2cccc([N+](=O)[O-])c2n1Cc1ccc(Cl)c(Cl)c1 | 10800
COc1cccc2cc(C(=O)O)n(Cc3ccc(Cl)c(Cl)c3)c12 | 1210
O=C(O)c1cc2ccccc2n1Cc1ccc(Cl)c(Cl)c1 | 230
O=C(O)c1cc2ccccc2n1Cc1ccc(-c2ccccc2)cc1 | > 50000
O=C(O)c1cc2ccccc2n1Cc1ccc(Cl)cc1 | 1360
N#Cc1cccc(Cn2c(C(=O)O)cc3cc(Cl)ccc32)c1 | 2000
O=C(O)c1c(C(=O)O)n(Cc2ccc(Cl)c(Cl)c2)c2ccccc12 | 96
CS(=O)(=O)c1cccc2c1cc(C(=O)O)n2Cc1ccc(Cl)c(Cl)c1 | 3880

SMILES | IC50 [nM]
COc1ccc(Cn2c(C(=O)O)cc3cc(Cl)ccc32)cc1 | 5770
O=C(O)c1cc2cc(Cl)ccc2n1Cc1cccc([N+](=O)[O-])c1 | 650
O=C(O)c1cc2cccc(C(F)(F)F)c2n1Cc1ccc(Cl)c(Cl)c1 | 1270
O=C(O)c1cc2cc(Cl)ccc2n1Cc1ccc(Cl)c(Cl)c1 | 110
O=C(O)c1cc2ccc(F)cc2n1Cc1ccc(Cl)c(Cl)c1 | 90
O=C(O)c1cc2ccc([N+](=O)[O-])cc2n1Cc1ccc(Cl)c(Cl)c1 | 1640
Cc1ccc(Cn2c(C(=O)O)cc3cc(Cl)ccc32)cc1C | 220
O=C(O)c1cc2ccc(C(F)(F)F)cc2n1Cc1ccc(Cl)c(Cl)c1 | 1050
O=C(O)c1cc2cc(Cl)ccc2n1Cc1ccc(OCc2ccccc2)cc1 | > 50000
O=C(O)c1cccc(Cn2c(C(=O)O)cc3cc(Cl)ccc32)c1 | 27000
O=C(O)c1cc2ccccc2n1Cc1ccccc1 | 1700
COc1c(C(=O)O)n(Cc2ccc(Cl)c(Cl)c2)c2ccccc12 | 770
Nc1cccc2c1cc(C(=O)O)n2Cc1ccc(Cl)c(Cl)c1 | 230
O=C(O)c1cc2c(-c3ccccc3)cccc2n1Cc1ccc(Cl)c(Cl)c1 | 640
O=C(O)c1cc2cc(-c3ccccc3)ccc2n1Cc1ccc(Cl)c(Cl)c1 | 8600
CS(=O)(=O)NC(=O)c1cc2ccccc2n1Cc1ccc(Cl)c(Cl)c1 | 6090
O=C(O)c1cc2ccccc2n1C(=O)c1ccc(Cl)c(Cl)c1 | > 50000
O=C(O)c1cc2c(Cl)cccc2n1Cc1ccc(Cl)c(Cl)c1 | 150
COc1cccc(Cn2c(C(=O)O)cc3cc(Cl)ccc32)c1 | 3010
N#Cc1c(C(=O)O)n(Cc2ccc(Cl)c(Cl)c2)c2ccccc12 | 300
O=C(O)c1cc2cc(Cl)ccc2n1Cc1ccccc1Cl | 1480
O=C(O)c1cc2cc(C(F)(F)F)ccc2n1Cc1ccc(Cl)c(Cl)c1 | 170
O=C(O)c1cc2ccc(-c3ccccc3)cc2n1Cc1ccc(Cl)c(Cl)c1 | 12300
COc1ccc2c(c1)cc(C(=O)O)n2Cc1ccc(Cl)c(Cl)c1 | 410
O=C(O)c1cc2cc(F)ccc2n1Cc1ccc(Cl)c(Cl)c1 | 56
O=C(O)c1cc2cccc(F)c2n1Cc1ccc(Cl)c(Cl)c1 | 125
